# Tests used:
# [1] = molecular target: T1, human sodium glucose cotransporter 2 (Homo sapiens, UniProt P31639); assay: SGLT2 assay: 14C-AMG uptake in CHO-hSGLT2 or HEK-hSGLT2 cells; assay type: cell-based; settings: n = 1-4
# T1 construct: expressed in transfected cells; host or cells: CHO-K1 (ATCC CCL-61) or HEK293 (ATCC CRL-1573), stably transfected with pZeoSV
# T1 sequence (P31639 1-672): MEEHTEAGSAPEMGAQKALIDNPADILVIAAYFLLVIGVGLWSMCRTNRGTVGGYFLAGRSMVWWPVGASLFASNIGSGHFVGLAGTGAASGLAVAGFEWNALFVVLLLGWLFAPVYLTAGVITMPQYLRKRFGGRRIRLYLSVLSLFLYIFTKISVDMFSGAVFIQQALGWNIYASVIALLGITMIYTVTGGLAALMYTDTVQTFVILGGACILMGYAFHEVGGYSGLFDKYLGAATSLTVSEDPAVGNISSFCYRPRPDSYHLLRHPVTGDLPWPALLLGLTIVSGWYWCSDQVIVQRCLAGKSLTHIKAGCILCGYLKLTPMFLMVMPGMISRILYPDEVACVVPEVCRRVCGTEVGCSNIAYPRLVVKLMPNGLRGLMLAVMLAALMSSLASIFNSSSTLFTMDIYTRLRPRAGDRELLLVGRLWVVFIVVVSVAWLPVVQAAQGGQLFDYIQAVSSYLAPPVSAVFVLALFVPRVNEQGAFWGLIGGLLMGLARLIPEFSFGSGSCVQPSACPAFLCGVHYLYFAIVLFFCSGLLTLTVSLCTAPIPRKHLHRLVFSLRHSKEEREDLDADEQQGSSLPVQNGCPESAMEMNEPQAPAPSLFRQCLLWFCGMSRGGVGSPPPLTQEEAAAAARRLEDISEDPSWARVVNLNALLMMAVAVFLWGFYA
# Procedure: These cell lines transport ^14C-labeled alpha-methyl-glucopyranoside (^14C-AMG, Amersham) into the interior of the cell in sodium-dependent manner.
# The SGLT-2 assay is carried out as follows: CHO-hSGLT2 cells are cultivated in Ham's F12 Medium (BioWhittaker) with 10% fetal calf serum and 250 μg/mL zeocin (Invitrogen), and HEK293-hSGLT2 cells are cultivated in DMEM medium with 10% fetal calf serum and 250 μg/mL zeocin (Invitrogen). The cells are detached from the culture flasks by washing twice with PBS and subsequently treating with trypsin/EDTA. After the addition of cell culture medium the cells are centrifuged, resuspended in culture medium and counted in a Casy cell counter. Then 40,000 cells per well are seeded into a white, 96-well plate coated with poly-D-lysine and incubated overnight at 37° C., 5% CO2. The cells are washed twice with 250 μl of assay buffer (Hanks Balanced Salt Solution, 137 mM NaCl, 5.4 mM KCl, 2.8 mM CaCl2, 1.2 mM MgSO4 and 10 mM HEPES (pH 7.4), 50 μg/mL of gentamycin). 250 μl of assay buffer and 5 μl of test compound are then added to each well and the plate is incubated for a further 15 minutes in the incubator. 5 μl of 10% DMSO are used as the negative control. The reaction is started by adding 5 μl of 14 C-AMG (0.05 μCi) to each well. After 2 hours' incubation at 37° C., 5% CO2, the cells are washed again with 250 μl of PBS ([…]) and then lysed by the addition of 25 μl of 0.1 N NaOH (5 min. at 37° C.). 200 μl of MicroScint20 (Packard) are added to each well and incubation is continued for a further 20 min at 37° C. After this incubation the radioactivity of the 14 C-AMG absorbed is measured in a Topcount (Packard) using a 14 C scintillation program.
# [2] = molecular target: T2, human SGLT1 (Homo sapiens, UniProt P13866); assay: SGLT1 assay: 14C-AMG uptake in CHO-K1 or HEK293 cells expressing hSGLT1; assay type: cell-based; settings: n = 1-4
# T2 construct: expressed in transfected cells; host or cells: CHO-K1 or HEK293
# T2 sequence (P13866 1-664): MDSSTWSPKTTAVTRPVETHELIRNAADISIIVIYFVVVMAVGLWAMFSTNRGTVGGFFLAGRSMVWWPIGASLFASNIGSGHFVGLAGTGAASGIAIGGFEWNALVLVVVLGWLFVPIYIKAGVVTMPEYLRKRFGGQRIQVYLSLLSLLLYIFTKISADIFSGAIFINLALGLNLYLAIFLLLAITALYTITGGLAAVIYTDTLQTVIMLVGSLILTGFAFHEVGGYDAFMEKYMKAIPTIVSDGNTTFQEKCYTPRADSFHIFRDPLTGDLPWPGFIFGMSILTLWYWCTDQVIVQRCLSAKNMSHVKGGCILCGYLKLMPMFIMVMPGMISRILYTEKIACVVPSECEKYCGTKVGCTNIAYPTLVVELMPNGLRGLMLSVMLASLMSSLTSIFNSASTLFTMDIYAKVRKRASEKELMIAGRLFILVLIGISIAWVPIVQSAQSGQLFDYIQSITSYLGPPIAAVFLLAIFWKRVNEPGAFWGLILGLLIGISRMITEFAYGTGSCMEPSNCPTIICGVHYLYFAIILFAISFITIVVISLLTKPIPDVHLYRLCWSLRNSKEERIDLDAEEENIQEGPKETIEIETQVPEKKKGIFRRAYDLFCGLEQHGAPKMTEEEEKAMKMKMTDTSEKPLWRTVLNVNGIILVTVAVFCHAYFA
# Procedure: To determine human SGLT1 inhibitory activity, an analogous test was set up in which the cDNA for hSGLTI (Genbank Ace. No. NM000343) instead of hSGLT2 cDNA is expressed in CHO-K1 or HEK293 cells. The uptake assay buffer in the case of the hSGLT1 assay contains 10 mM HEPES, 5 mM Tris, 140 mM NaCl, 2 mM KCl, 1 mM CaCl2, and 1 mM MgCl2, pH 7.4 containing 0.5 mM of α-methyl-D-glucopyranoside (AMG), 10 μM of [^14C]-α-methyl-D-glucopyranoside and different inhibitor concentrations.
SMILES,IC50 [1],IC50 [2]
"CCOc1ccc(Cc2cc([C@@H]3O[C@H](Cn4nncc4CO)[C@@H](O)[C@H](O)[C@H]3O)ccc2Cl)cc1 [Example 9, (2S, 3R, 4R, 5S, 6R)-2-[4-Chloro-3-(4-ethoxy-benzyl)-phenyl]-6-(5-hydroxymethyl-[1,2,3]triazol-1-ylmethyl)-tetrahydro-pyran-3,4,5-triol]",94 nM,> 10000 nM
"CCOc1ccc(Cc2cc([C@@H]3O[C@H](Cn4cc(CO)nn4)[C@@H](O)[C@H](O)[C@H]3O)ccc2Cl)cc1 [Example 10, (2S, 3R, 4R, 5S, 6R)-2-[4-Chloro-3-(4-ethoxy-benzyl)-phenyl]-6-(4-hydroxymethyl-[1,2,3]triazol-1-ylmethyl)-tetrahydro-pyran-3,4,5-triol]",50 nM,32000 nM
"CCOc1ccc(Cc2cc([C@@H]3O[C@H](Cn4cc(C(N)=O)nn4)[C@@H](O)[C@H](O)[C@H]3O)ccc2Cl)cc1 [Example 12, 1-{(2R,3S,4R,5R,6S)-6-[4-Chloro-3-(4-ethoxy-benzyl)-phenyl]-3,4,5-trihydroxy-tetrahydro-pyran-2-ylmethyl}-1H-[1,2,3]triazole-4-carboxylic acid amide]",81 nM,
"CCOc1ccc(Cc2cc([C@@H]3O[C@H](CNc4cccc(NC(C)=O)c4)[C@@H](O)[C@H](O)[C@H]3O)ccc2Cl)cc1 [Example 34, N-[3-({(2R,3S,4R,5R,6S)-6-[4-Chloro-3-(4-ethoxy-benzyl)-phenyl]-3,4,5-trihydroxy-tetrahydro-pyran-2-ylmethyl}-amino)-phenyl]-acetamide]",23 nM,1500 nM
"CCOc1ccc(Cc2cc([C@@H]3O[C@H](CN(C)c4cccc(C(=O)N5CCCC5)c4)[C@@H](O)[C@H](O)[C@H]3O)ccc2Cl)cc1 [Example 37, [3-({(2R,3S,4R,5R,6S)-6-[4-Chloro-3-(4-ethoxy-benzyl)-phenyl]-3,4,5-trihydroxy-tetrahydro-pyran-2-ylmethyl}-methyl-amino)-phenyl]-pyrrolidin-1-yl-methanone]",10 nM,280 nM

# Source: US20110269700A1, “GLUCOSIDE DERIVATIVES AND USES THEREOF” (NOVARTIS AG, priority 2008, published 2011)
